What was measured:
[1] = tested on: barnyardgrass (Echinochloa crus-galli); assay: Test A preemergence, barnyardgrass; type: in vivo; conditions: Echinochloa crus-galli, pre-emergence, 240 h, 0 to 100 scale (0 no effect, 100 complete control), read-out: Plant response rating, Barnyardgrass; for pest or weed control at 31 g/ha: 31 g ai/ha; for pest or weed control at 125 g/ha: 125 g ai/ha
kochia (Kochia scoparia) [2] = assay: Test A preemergence, kochia; type: in vivo; conditions: Bassia scoparia, pre-emergence, 240 h, 0 to 100 scale (0 no effect, 100 complete control), read-out: Plant response rating, Kochia; for pest or weed control at 31 g/ha: 31 g ai/ha; for pest or weed control at 125 g/ha: 125 g ai/ha
[3] = tested on: ragweed (common ragweed, Ambrosia elatior); assay: Test A preemergence, ragweed; type: in vivo; conditions: Ambrosia artemisiifolia, pre-emergence, 240 h, 0 to 100 scale (0 no effect, 100 complete control), read-out: Plant response rating, Ragweed; for pest or weed control at 31 g/ha: 31 g ai/ha; for pest or weed control at 125 g/ha: 125 g ai/ha
[4] = tested on: ryegrass, Italian (Italian ryegrass, Lolium multiflorum); assay: Test A preemergence, ryegrass, Italian; type: in vivo; conditions: Lolium multiflorum, pre-emergence, 240 h, 0 to 100 scale (0 no effect, 100 complete control), read-out: Plant response rating, Ryegrass, Italian; for pest or weed control at 31 g/ha: 31 g ai/ha; for pest or weed control at 125 g/ha: 125 g ai/ha
[5] = tested on: foxtail, green (green foxtail, Setaria viridis); assay: Test A preemergence, foxtail, green; type: in vivo; conditions: Setaria, pre-emergence, 240 h, 0 to 100 scale (0 no effect, 100 complete control), read-out: Plant response rating, Foxtail, Green; for pest or weed control at 31 g/ha: 31 g ai/ha; for pest or weed control at 125 g/ha: 125 g ai/ha
[6] = tested on: pigweed (Amaranthus retroflexus); assay: Test A preemergence, pigweed; type: in vivo; conditions: Amaranthus retroflexus, pre-emergence, 240 h, 0 to 100 scale (0 no effect, 100 complete control), read-out: Plant response rating, Pigweed; for pest or weed control at 31 g/ha: 31 g ai/ha; for pest or weed control at 125 g/ha: 125 g ai/ha
[7] = tested on: barnyardgrass (Echinochloa crus-galli); assay: Test A postemergence, barnyardgrass; type: in vivo; conditions: Echinochloa crus-galli, post-emergence, 240 h, 0 to 100 scale (0 no effect, 100 complete control), read-out: Plant response rating, Barnyardgrass; for pest or weed control at 31 g/ha: 31 g ai/ha; for pest or weed control at 125 g/ha: 125 g ai/ha
kochia (Kochia scoparia) [8] = assay: Test A postemergence, kochia; type: in vivo; conditions: Bassia scoparia, post-emergence, 240 h, 0 to 100 scale (0 no effect, 100 complete control), read-out: Plant response rating, Kochia; for pest or weed control at 31 g/ha: 31 g ai/ha; for pest or weed control at 125 g/ha: 125 g ai/ha
[9] = tested on: ragweed (common ragweed, Ambrosia elatior); assay: Test A postemergence, ragweed; type: in vivo; conditions: Ambrosia artemisiifolia, post-emergence, 240 h, 0 to 100 scale (0 no effect, 100 complete control), read-out: Plant response rating, Ragweed; for pest or weed control at 31 g/ha: 31 g ai/ha; for pest or weed control at 125 g/ha: 125 g ai/ha
[10] = tested on: ryegrass, Italian (Italian ryegrass, Lolium multiflorum); assay: Test A postemergence, ryegrass, Italian; type: in vivo; conditions: Lolium multiflorum, post-emergence, 240 h, 0 to 100 scale (0 no effect, 100 complete control), read-out: Plant response rating, Ryegrass, Italian; for pest or weed control at 31 g/ha: 31 g ai/ha; for pest or weed control at 125 g/ha: 125 g ai/ha
[11] = tested on: pigweed (Amaranthus retroflexus); assay: Test A postemergence, pigweed; type: in vivo; conditions: Amaranthus retroflexus, post-emergence, 240 h, 0 to 100 scale (0 no effect, 100 complete control), read-out: Plant response rating, Pigweed; for pest or weed control at 31 g/ha: 31 g ai/ha; for pest or weed control at 125 g/ha: 125 g ai/ha
[12] = tested on: wheat (Triticum aestivum); assay: Test A postemergence, wheat; type: in vivo; conditions: Triticum aestivum, post-emergence, 240 h, 0 to 100 scale (0 no effect, 100 complete control), read-out: Plant response rating, Wheat; for plant injury at 31 g/ha: 31 g ai/ha; for plant injury at 125 g/ha: 125 g ai/ha
corn (Zea mays) = assay: Test A postemergence, corn; type: in vivo; conditions: Zea mays, post-emergence, 240 h, 0 to 100 scale (0 no effect, 100 complete control); for Corn plant response rating (crop injury, 0 = no effect, 100 = complete kill) at 31 g/ha: 31 g ai/ha; for Corn plant response rating (crop injury, 0 = no effect, 100 = complete kill) at 125 g/ha: 125 g ai/ha
[13] = tested on: blackgrass (Alopecurus myosuroides); assay: Test A postemergence, blackgrass; type: in vivo; conditions: Alopecurus myosuroides, post-emergence, 240 h, 0 to 100 scale (0 no effect, 100 complete control), read-out: Plant response rating, Blackgrass; for pest or weed control at 31 g/ha: 31 g ai/ha; for pest or weed control at 125 g/ha: 125 g ai/ha
[14] = tested on: galium (catchweed bedstraw, Galium aparine); assay: Test A postemergence, galium; type: in vivo; conditions: Galium, post-emergence, 240 h, 0 to 100 scale (0 no effect, 100 complete control), read-out: Plant response rating, Galium; for pest or weed control at 31 g/ha: 31 g ai/ha; for pest or weed control at 125 g/ha: 125 g ai/ha
rice (Oryza sativa) = assay: Test B flooded paddy test, rice; conditions: Oryza sativa, read-out: Plant response rating, Rice (0 to 100 scale, 0 is no effect, 100 is complete control)
[15] = tested on: ducksalad (Heteranthera limosa); assay: Test B flooded paddy test, ducksalad; conditions: Heteranthera limosa, read-out: Plant response rating, Ducksalad (0 to 100 scale, 0 is no effect, 100 is complete control)
[16] = tested on: barnyardgrass (Echinochloa crus-galli); assay: Test B flooded paddy test, barnyardgrass; conditions: Echinochloa crus-galli, read-out: Plant response rating, Barnyardgrass (0 to 100 scale, 0 is no effect, 100 is complete control)

Row | Compound | pest or weed control at 31 g/ha [1] | pest or weed control at 125 g/ha [1] | pest or weed control at 31 g/ha (kochia (Kochia scoparia) [2]) | pest or weed control at 125 g/ha (kochia (Kochia scoparia) [2]) | pest or weed control at 31 g/ha [3] | pest or weed control at 125 g/ha [3] | pest or weed control at 31 g/ha [4] | pest or weed control at 125 g/ha [4] | pest or weed control at 31 g/ha [5] | pest or weed control at 125 g/ha [5] | pest or weed control at 31 g/ha [6] | pest or weed control at 125 g/ha [6] | pest or weed control at 31 g/ha [7] | pest or weed control at 125 g/ha [7] | pest or weed control at 31 g/ha (kochia (Kochia scoparia) [8]) | pest or weed control at 125 g/ha (kochia (Kochia scoparia) [8]) | pest or weed control at 31 g/ha [9] | pest or weed control at 125 g/ha [9] | pest or weed control at 31 g/ha [10] | pest or weed control at 125 g/ha [10] | further results
1 | O=C1COC(CCCC(F)(F)F)c2c(Oc3ncc(Cl)cn3)cccc21 (stereo not drawn) [Compound 5, 8-[(5-Chloro-2-pyrimidinyl)oxy]-1-(4,4,4-trifluorobutyl)-1H-2-benzopyran-4(3H)-one] | 0% | 0% | 0% | 0% | 0% | 0% | 0% | 0% | 0% | 0% | 0% | 90% | 0% | 10% | 0% | 10% | 0% | 0% | 0% | 10% | pest or weed control at 31 g/ha [11]: 10%; pest or weed control at 125 g/ha [11]: 90%; plant injury at 31 g/ha [12]: 0%; plant injury at 125 g/ha [12]: 0%; Corn plant response rating (crop injury, 0 = no effect, 100 = complete kill) at 31 g/ha (corn (Zea mays)): 0%; Corn plant response rating (crop injury, 0 = no effect, 100 = complete kill) at 125 g/ha (corn (Zea mays)): 10%; pest or weed control at 31 g/ha [13]: 10%; pest or weed control at 125 g/ha [13]: 10%; pest or weed control at 31 g/ha [14]: 0%; pest or weed control at 125 g/ha [14]: 30%; plant injury at 250 g/ha (rice (Oryza sativa)): 40%; pest or weed control at 250 g/ha [15]: 60%; pest or weed control at 250 g/ha [16]: 0%
2 | FC(F)(F)CCCC1OCc2cccc(Oc3ncc(Cl)cn3)c21 (stereo not drawn) [Compound 7, 5-chloro-2-[[1,3-dihydro-3-(4,4,4-trifluorobutyl)-4-isobenzofuranyl]oxy]-pyrimidine] | 20% | 90% | 0% | 100% | 0% | 0% | 0% | 50% | 80% | 100% | 20% | 100% | 20% | 60% | 90% | 100% | 0% | 0% | 20% | 60% | pest or weed control at 31 g/ha [11]: 80%; pest or weed control at 125 g/ha [11]: 100%; plant injury at 31 g/ha [12]: 10%; plant injury at 125 g/ha [12]: 30%; Corn plant response rating (crop injury, 0 = no effect, 100 = complete kill) at 31 g/ha (corn (Zea mays)): 20%; Corn plant response rating (crop injury, 0 = no effect, 100 = complete kill) at 125 g/ha (corn (Zea mays)): 40%; pest or weed control at 31 g/ha [13]: 10%; pest or weed control at 125 g/ha [13]: 70%; pest or weed control at 31 g/ha [14]: 50%; pest or weed control at 125 g/ha [14]: 100%; plant injury at 250 g/ha (rice (Oryza sativa)): 40%; pest or weed control at 250 g/ha [15]: 100%; pest or weed control at 250 g/ha [16]: 40%
3 | FC(F)(F)CCC1OCc2cccc(Oc3ncc(Cl)cn3)c21 (stereo not drawn) [Compound 8, 5-Chloro-2-[[1,3-dihydro-3-(3,3,3-trifluoropropyl)-4-isobenzofuranyl]oxy]pyrimidine] | 80% | 100% | 20% | 100% | 0% | 10% | 10% | 70% | 80% | 100% | 100% | 100% | 10% | 50% | 80% | 90% | 10% | 20% | 10% | 50% | pest or weed control at 31 g/ha [11]: 100%; pest or weed control at 125 g/ha [11]: 100%; plant injury at 31 g/ha [12]: 0%; plant injury at 125 g/ha [12]: 50%; Corn plant response rating (crop injury, 0 = no effect, 100 = complete kill) at 31 g/ha (corn (Zea mays)): 10%; Corn plant response rating (crop injury, 0 = no effect, 100 = complete kill) at 125 g/ha (corn (Zea mays)): 50%; pest or weed control at 31 g/ha [13]: 30%; pest or weed control at 125 g/ha [13]: 100%; pest or weed control at 31 g/ha [14]: 30%; pest or weed control at 125 g/ha [14]: 80%; plant injury at 250 g/ha (rice (Oryza sativa)): 20%; pest or weed control at 250 g/ha [15]: 100%; pest or weed control at 250 g/ha [16]: 35%

Source: patent publication US11427549B2, “Pyrimidinyloxy benzo-fused compounds as herbicides” (FMC Corporation, priority 2017, dated 2022)
